What was measured:
[1] = system: pSTAT3 (Tyr705) and CD11b; test: Immunohistochemistry of mouse tumors treated with Serpinb3a siRNA; assay type: in vivo
Description: Pretreatment serum SCCA was evaluated by ARUP National Reference Laboratory (Salt Lake City, UT, USA) using ELISA, and tissue microarrays were generated from untreated human tumor specimens. TMA sections were sent to HistoWiz Inc for IHC staining for CD11b (1:100, Abcam ab224800) and IHC for pSTAT3 (1:200, Sigma SAB4300033) was performed by Washington University AMP Core Labs. Mouse tumor sections were stained with pSTAT3 (1:150, Invitrogen PA5-121259) and CD11b (1:500, Invitrogen PA5-79532), using a Pierce peroxidase IHC detection kit (Thermo Fisher). QuPath V0.3.2 software was used for automated analysis using surface and cytoplasmic staining to determine the percent cells positive for CD11b. The staining scores for pSTAT3 were evaluated by the pathologist and calculated by (% of positively stained tumor cells x staining intensity ranged from 0-3). Values from at least two cores from each sample were considered valid and an average score was taken.

Serpinb3a = test: Knockdown of Serpinb3a in tumors by qPCR; assay type: in vivo, mouse; conditions: siB3-treated LL2/B3a tumors; average
Description: For xenograft models, female athymic nude mice aged 6-7 weeks old (Charles River) were injected subcutaneously with 5×10^6 Caski/Ctrl or Caski/B3 cells suspended in serum-free IMDM and 50% Matrigel Basement Membrane Matrix (Corning) to a final volume of 100 μl on their flank. For immunocompetent models, female C57/BL6 mice aged 7-8 weeks (Charles River) were injected subcutaneously with 5×10^5 LL2/Ctrl or LL2/B3a cells suspended in 100 μl of PBS into the right flank. To deplete myeloid cells, mice were treated with anti-CD11b antibody (Ultra-LEAF purified anti-mouse CD11b, Biolegend) or isotype IgG2b as control (Ultra-LEAF purified rat IgG2b, Biolegend). […] Tumor volume was measured twice weekly and calculated by (length×width2)/2. […]
Lipofectamine RNAiMAX (Thermo Fisher) was used for STAT1 siRNA (ID: SASI_Hs02_00343387, SASI_Hs01_00098937, Sigma), STAT3 siRNA (ID: SASI_Hs01_00121206, SASI_Hs01_00061860, Sigma), and negative control siRNA (SIC001, Sigma) transfection, according to the manufacturer's instructions. […] Quantitative polymerase chain reaction (qPCR) was performed using PowerUp SYBR green PCR Master Mix (Applied Biosystems) and the Applied Biosystems 7900 Fast real-time PCR system and software. Each sample was performed in triplicate, gene expression levels were normalized to GAPDH, and fold changes were calculated using the ΔΔCt method. […]

LL2/B3a tumors = LL2/B3a tumors treated with Serpinb3a siRNA with or without 10 Gy RT; assay type: in vivo, C57/BL6 mice
Description: Single-cell suspensions were blocked with either Human TruStain FcX Solution (422301, Biolegend) or mouse TruStain FcX PLUS (anti-mouse CD16/32) Antibody (S17011E, Biolegend) to avoid nonspecific Fc receptor binding and stained with LIVE/DEADFixable Dead Cell Stain Kit (MACS) to exclude dead cells. For surface staining, cells were incubated with the appropriate antibodies for 30 min at 4° C. Intracellular cytokine and nuclear staining was performed after surface staining using Cyto-Fast Fix/Perm Buffer Set and True-Nuclear Transcription Factor Buffer Set, respectively (BioLegend). Data analysis including viSNE and FlowJo plugin FlowSOM were performed on FlowJo v.10 (TreeStar). A range of 20,000 to 60,000 live cells was acquired and individual flow cytometry data from each group were combined into a single data file for generating viSNE. Color-coded subpopulations were gated by pre-defined markers for each immune cell type and overlaid to the viSNE plots for total CD45+ cells from tumors. All flow cytometry gating plots, histograms, and statistics were generated on FlowJo.
For xenograft models, female athymic nude mice aged 6-7 weeks old (Charles River) were injected subcutaneously with 5×10^6 Caski/Ctrl or Caski/B3 cells suspended in serum-free IMDM and 50% Matrigel Basement Membrane Matrix (Corning) to a final volume of 100 μl on their flank. For immunocompetent models, female C57/BL6 mice aged 7-8 weeks (Charles River) were injected subcutaneously with 5×10^5 LL2/Ctrl or LL2/B3a cells suspended in 100 μl of PBS into the right flank. To deplete myeloid cells, mice were treated with anti-CD11b antibody (Ultra-LEAF purified anti-mouse CD11b, Biolegend) or isotype IgG2b as control (Ultra-LEAF purified rat IgG2b, Biolegend). Antibodies were administered through intraperitoneal injection at the initial dose of 300 μg in 150 μl PBS on day 10 post-tumor inoculation, and a subsequent dose of 150 μg in 100 μl PBS every three days. To knock down Serpinb3a, mice received either mSerpinb3a siRNA (5′-ACAUCGAAUUUAACUUCAUtt-3′; 5′-AUGAAGUUAAAUUCGAUGUtt-3′; ID:s73336, Thermo) or control siRNA (Ambion in vivo negative control #1 Thermo) complexed with Invivofectamine 3 (Thermo Fisher) as per manufacturer's protocol. Mice received three intratumoral injections of 10 μg siRNA on days 9, 11, and 13 post-tumor inoculation before radiation treatment performed on day 14. On days 16 and 19, mice received 20 μg siRNA via intraperitoneal injection. For radiation treatment, mice were randomized to receive sham or 10Gy RT using the Xstrahl Small Animal Radiation Research Platform (SARRP) 200 (Xstrahl Life Sciences). Tumor volume was measured twice weekly and calculated by (length×width2)/2. For tissue dissociation, tumors were manually dissected and digested with 1 mg/ml Collagenase, 0.5 mg/ml hyaluronidase, and 10 mg/mL DNase I type IV (Sigma), and transferred to a tissue disaggregator (Medicon, BectonDickinson) using a CTSV (Medimachine II, BectonDickinson) and tissue homogenates were filtered through a 100 μm strainer. Spleens were dissociated by being pressed through a 70 μm filter. Animal work was approved by the Washington University Institute Institutional Animal Care and Use Committee (Protocol #20-0470).
T cells isolated using MojoSort mouse CD3 T cell isolation kit (Biolegend) were labeled with CellTrace violet and activated with CD3/CD28 Dynabeads (Thermo Fisher) for 4 days to evaluate proliferation. To examine TNF and IFNr, T cells were stimulated with 500× Cell Activation Cocktail containing 40.5 μM phorbol-12-myristate 13-acetate (PMA) and 669.3 μM ionomycin (Biolegend) in the presence of 5 μg/mL BFA (Biolegend) for 5 h and stained with surface/intracellular markers for FACS analysis.
Cell culture supernatant was collected at 48 h after fresh media was added to the adherent cells in a monolayer. Cell lysates were prepared using NP-40 buffer (Alfa Aesar). […]

glioma = conditions: STAT3 inhibitor and irradiation vs either treatment alone; glioma preclinical study; cited from earlier work

| Compound | pSTAT3 expression (immunostaining of pSTAT3(Tyr705)) ([1]; LL2/B3a+siB3 tumors) | CD11b+ myeloid cell infiltration ([1]; Serpinb3a knockdown tumors) | decrease of Serpinb3a RNA expression in tumors (Serpinb3a) | PD-1 in CD8+ T cells (LL2/B3a tumors; RT/siB3 vs RT/siNC) | tumor growth inhibition (LL2/B3a tumors; combination of Serpinb3a knockdown with 10 Gy RT (RT/siB3)) | tumor growth (LL2/B3a tumors; sham siB3-treated vs sham siNC-treated tumors) | CTLA-4 in CD8+ T cells (LL2/B3a tumors; sham/RT siB3 vs siNC tumors) | ratio of CD8/Treg (LL2/B3a tumors; sham/RT siB3 vs siNC tumors) | CD8+ T cells in tumors (LL2/B3a tumors; sham/siB3 tumors) | M-MDSCs, PMN-MDSCs, and M2 macrophages in tumors (LL2/B3a tumors; sham/siB3 vs sham/siNC tumors, flow cytometry) | expression of CXCL1, and S100A8/A9 in tumor homogenates (LL2/B3a tumors; sham/siNC vs. sham/siB3, ELISA) | proliferative capacity of CD8+ T cells upon anti-CD3/28 stimulation (LL2/B3a tumors; siB3 tumor-derived vs siNC tumor-derived) | expression of granzyme B and perforin in CD8+ T cells (LL2/B3a tumors; siB3 tumors) | expression of granzyme B and perforin in CD8+ T cells (LL2/B3a tumors; siB3 tumors with radiation treatment) | survival (glioma) |
| --- | --- | --- | --- | --- | --- | --- | --- | --- | --- | --- | --- | --- | --- | --- | --- |
| siB3: mSerpinb3a siRNA 5′-ACAUCGAAUUUAACUUCAUtt-3′; 5′-AUGAAGUUAAAUUCGAUGUtt-3′; ID:s73336, Thermo, complexed with Invivofectamine 3 (sense ACAUCGAAUUUAACUUCAUTT; antisense AUGAAGUUAAAUUCGAUGUTT; Invivofectamine 3 complex, further chemistry not given here) | significantly reduced | reduced | 65% | lower | more significant tumor growth inhibition | Reduced tumor growth | lower | higher ratio | increase | significant reduction | significant decrease | markedly higher proliferative capacity | increased expression | further enhanced | – |
| C[C@H](NC(=O)/C(C#N)=C/c1cccc(Br)n1)c1ccccc1 [WP1066] | – | – | – | – | – | – | – | – | – | – | – | – | – | – | enhanced survival |

— patent publication US20230321105A1, “CELL SIGNAL DETECTION AND MODULATION IN DISEASE” (Washington University, priority 2022, published 2023)
